Laboratory results from patent US20230413824A1, “AGROCHEMICAL COMPOSITION COMPRISING 3-SUBSTITUTED PHENYLAMIDINE COMPOUNDS AND USE THEREOF” (PI INDUSTRIES LIMITED, priority 2020, published 2023).
“And” between values parts separate entries of the source, which are not always exact repeats. Equal values may be shown once. Read-outs that look alike come from different tables or passages of the source.

How the values were obtained:
Type in all cases: in vivo
Botrytis cinerea = Botrytis cinerea test in tomato (preventive, glasshouse); conditions: single compound
Phakopsora pachyrhizi = Phakopsora pachyrhizi test in soybean (preventive, glasshouse); conditions: single compound
Septoria nodorum = experiment: Parastagonospora nodorum/Septoria nodorum/Stagnospora nodorum test in wheat (preventive, glasshouse); conditions: single compound
Procedure: The single compounds or compound combinations were dissolved in 2% DMSO/Acetone and then mixed with water containing emulsifier to a calibrated spray volume of 50 mL. The spray solutions were poured into spray bottles for further applications.
To test the preventive activity of compounds, healthy young wheat plants, raised in the greenhouse, were sprayed with the single compound or mixture preparation at the stated application rates inside the spray cabinets using hollow cone nozzles. One day after treatment, the plants were inoculated with a suspension containing 2.8×10^6 Stagnospora nodorum inoculum. The inoculated plants were then kept in a greenhouse chamber at 22-25° C. temperature and 90-100% relative humidity for disease expression.
A visual assessment of the performance of the compounds and respective compound combinations was carried out by rating the disease severity (0-100% scale) on treated plants 3, 7 and 10 days after application. Efficacy (% control) of the compounds was calculated by comparing the disease rating in the treatment with the one of the untreated control. The compounds were also assessed for their plant compatibility by recording symptoms like necrosis, chlorosis & stunting. The results are shown for the compound of formula (I-1) to (I-5) in Table E1-E5.

Alternaria solani = Alternaria solani test in tomato (preventive, glasshouse)
Erysiphe cichoracearum = Erysiphe cichoracearum test in cucumber (preventive, glasshouse); conditions: single compound
Pyricularia oryzae = experiment: whole plant or invertebrate; conditions: single compound, preventive spray, rice
[1] = Conc. 0.1 ppm, preventive spray on tomato, % control vs untreated
[2] = 0.05 ppm, preventive spray on soybean
[3] = 0.1 ppm, preventive spray on soybean
[4] = Conc. 0.05 ppm, soybean, preventive, Table D4
[5] = Conc. 0.1 ppm, soybean, preventive, Table D4
[6] = Table B3, single compound, Conc. 0.05 ppm, preventive
[7] = Table B3, single compound, Conc. 0.1 ppm, preventive
[8] = Table B4, single compound, Conc. 0.05 ppm, preventive
[9] = Table B4, single compound, Conc. 0.1 ppm, preventive
[10] = single compound, 0.05 ppm, preventive
[11] = single compound, 0.05 ppm, preventive spray
[12] = single compound, 0.1 ppm, preventive
[13] = single compound, 0.1 ppm, preventive spray
[14] = Botrytis cinerea, Conc. 0.05 ppm, preventive spray on tomato, % control vs untreated, read-out: Observed Efficacy (%)
[15] = Botrytis cinerea, Conc. 0.1 ppm, preventive spray on tomato, % control vs untreated, read-out: Observed Efficacy (%)
[16] = Table F4, Conc. 0.05 ppm, Botrytis cinerea in tomato, preventive
[17] = Table F4, Conc. 0.1 ppm, Botrytis cinerea in tomato, preventive
[18] = 0.05 ppm, preventive spray on cucumber
[19] = 0.1 ppm, preventive spray on cucumber
[20] = Phakopsora pachyrhizi, 0.05 ppm, preventive spray on soybean, read-out: Observed Efficacy (%)
[21] = Phakopsora pachyrhizi, 0.1 ppm, preventive spray on soybean, read-out: Observed Efficacy (%)
[22] = Conc. 0.05 ppm, soybean, preventive, Table D5
[23] = Conc. 0.1 ppm, soybean, preventive, Table D5
[24] = Parastagonospora nodorum, 0.1 ppm, read-out: Observed Efficacy (%)
[25] = Alternaria solani, single compound, 0.05 ppm, preventive spray, read-out: Observed Efficacy (%)
[26] = Alternaria solani, single compound, 0.1 ppm, preventive spray, read-out: Observed Efficacy (%)
[27] = Conc. 0.05 ppm, preventive spray on tomato, % control vs untreated

With Cn1cc(C(=O)Nc2ccc(F)cc2-c2ccc(Cl)c(Cl)c2)c(C(F)F)n1 [Bixafen, bixafen] the “Observed Efficacy (%)” value (Botrytis cinerea; [1]) was 48%, the “Observed Efficacy (%)” value (Phakopsora pachyrhizi; [2]) was 15% and the “Observed Efficacy (%)” value (Phakopsora pachyrhizi; [3]) was 22%. For the same compound, the “Observed Efficacy (%)” value (Phakopsora pachyrhizi; [4]) was 15%, the “Observed Efficacy (%)” value (Phakopsora pachyrhizi; [5]) was 22% and the “Observed Efficacy (%)” value (Septoria nodorum; 0.05 ppm) was 18%. The “Observed Efficacy (%)” value (Septoria nodorum; 0.1 ppm) was 29%, the “Observed Efficacy (%)” value (Alternaria solani; [6]) was 11% and the “Observed Efficacy (%)” value (Alternaria solani; [7]) was 29%. For the same compound, the “Observed Efficacy (%)” value (Alternaria solani; [8]) was 11%, the “Observed Efficacy (%)” value (Alternaria solani; [9]) was 29% and the “Observed Efficacy (%)” value (Alternaria solani; [10]) was 11%. The “Observed Efficacy (%)” value (Alternaria solani; [11]) was 11%, the “Observed Efficacy (%)” value (Alternaria solani; [12]) was 29% and the “Observed Efficacy (%)” value (Alternaria solani; [13]) was 29%. The “Observed Efficacy” value (Alternaria solani; single compound, Conc. 0.05 ppm, preventive spray) was 11% and the “Observed Efficacy” value (Alternaria solani; single compound, Conc. 0.1 ppm, preventive spray) was 29%.
Compound CCN(C)C=Nc1cc(C)cc(Cc2ccccc2C)c1C [Compound (I-3), N′-(2,5-dimethyl-3-(2-methylbenzyl)phenyl)-N-ethyl-N-methylformimidamide] has a pest or weed control at 1 ppm (Botrytis cinerea; Botrytis cinerea, Conc. 1 ppm, preventive spray on tomato, % control vs untreated, read-out: Observed Efficacy (%)) of 57%, a pest or weed control at 5 ppm (Botrytis cinerea; Botrytis cinerea, Conc. 5 ppm, preventive spray on tomato, % control vs untreated, read-out: Observed Efficacy (%)) of 67% and a pest or weed control at 20 ppm (Botrytis cinerea; Botrytis cinerea, Conc. 20 ppm, preventive spray on tomato, % control vs untreated, read-out: Observed Efficacy (%)) of 77%. For the same compound, the pest or weed control at 1 ppm (Erysiphe cichoracearum; Golovinomyces cichoracearum, 1 ppm, preventive spray on cucumber, read-out: Observed Efficacy (%)) was 17%, the pest or weed control at 5 ppm (Erysiphe cichoracearum; Golovinomyces cichoracearum, 5 ppm, preventive spray on cucumber, read-out: Observed Efficacy (%)) was 27% and the pest or weed control at 20 ppm (Erysiphe cichoracearum; Golovinomyces cichoracearum, 20 ppm, preventive spray on cucumber, read-out: Observed Efficacy (%)) was 47%. The pest or weed control at 0.0001 ppm (Phakopsora pachyrhizi; Phakopsora pachyrhizi, 0.0001 ppm, preventive spray on soybean, read-out: Observed Efficacy (%)) was 47%, the pest or weed control at 0.001 ppm (Phakopsora pachyrhizi; Phakopsora pachyrhizi, 0.001 ppm, preventive spray on soybean, read-out: Observed Efficacy (%)) was 53% and the pest or weed control at 0.01 ppm (Phakopsora pachyrhizi; Phakopsora pachyrhizi, 0.01 ppm, preventive spray on soybean, read-out: Observed Efficacy (%)) was 65%. For the same compound, the pest or weed control at 1 ppm (Septoria nodorum; Parastagonospora nodorum, 1 ppm, read-out: Observed Efficacy (%)) was 13%, the pest or weed control at 5 ppm (Septoria nodorum; Parastagonospora nodorum, 5 ppm, read-out: Observed Efficacy (%)) was 27% and the pest or weed control at 20 ppm (Septoria nodorum; Parastagonospora nodorum, 20 ppm, read-out: Observed Efficacy (%)) was 40%. It also gave a pest or weed control at 1 ppm (Alternaria solani; Alternaria solani, Table B3, single compound, Conc. 1 ppm, preventive, read-out: Observed Efficacy (%)) of 17%, a pest or weed control at 5 ppm (Alternaria solani; Alternaria solani, Table B3, single compound, Conc. 5 ppm, preventive, read-out: Observed Efficacy (%)) of 23% and a pest or weed control at 20 ppm (Alternaria solani; Alternaria solani, Table B3, single compound, Conc. 20 ppm, preventive, read-out: Observed Efficacy (%)) of 43%.
O=[N+]([O-])c1cc(C(F)(F)F)c(Cl)c([N+](=O)[O-])c1Nc1ncc(C(F)(F)F)cc1Cl [Fluazinam] was tested, and the pest or weed control at 0.05 ppm (Botrytis cinerea; [14]) was 29%, the pest or weed control at 0.1 ppm (Botrytis cinerea; [15]) was 38% and the “Observed Efficacy (%)” value (Botrytis cinerea; [16]) was 29%. For the same compound, the “Observed Efficacy (%)” value (Botrytis cinerea; [17]) was 38%, the pest or weed control at 0.05 ppm (Erysiphe cichoracearum; Golovinomyces cichoracearum, 0.05 ppm, cucumber, preventive, read-out: Observed Efficacy (%)) was 11% and the pest or weed control at 0.1 ppm (Erysiphe cichoracearum; Golovinomyces cichoracearum, 0.1 ppm, cucumber, preventive, read-out: Observed Efficacy (%)) was 18%. For the same compound, the “Observed Efficacy (%)” value (Erysiphe cichoracearum; [18]) was 11%, the “Observed Efficacy (%)” value (Erysiphe cichoracearum; [19]) was 18% and the pest or weed control at 0.05 ppm (Phakopsora pachyrhizi; [20]) was 2%. For the same compound, the pest or weed control at 0.1 ppm (Phakopsora pachyrhizi; [21]) was 10%, the “Observed Efficacy (%)” value (Phakopsora pachyrhizi; [4]) was 2% and the “Observed Efficacy (%)” value (Phakopsora pachyrhizi; [22]) was 2%. The “Observed Efficacy (%)” value (Phakopsora pachyrhizi; [5]) was 10%, the “Observed Efficacy (%)” value (Phakopsora pachyrhizi; [23]) was 10% and the pest or weed control at 0.1 ppm (Septoria nodorum; [24]) was 21%. The pest or weed control at 0.05 ppm (Alternaria solani; [25]) was 7%, the pest or weed control at 0.1 ppm (Alternaria solani; [26]) was 16% and the “Observed Efficacy (%)” value (Alternaria solani; [6]) was 7%. For the same compound, the “Observed Efficacy (%)” value (Alternaria solani; [7]) was 16%, the “Observed Efficacy (%)” value (Alternaria solani; [8]) was 7% and the “Observed Efficacy (%)” value (Alternaria solani; [9]) was 16%. The “Observed Efficacy (%)” value (Alternaria solani; [10]) was 7% and the “Observed Efficacy (%)” value (Alternaria solani; [12]) was 16%.
In the case of O=C(NCCc1ncc(C(F)(F)F)cc1Cl)c1ccccc1C(F)(F)F [Fluopyram], the pest or weed control at 0.05 ppm (Botrytis cinerea; [14]) is reported as 38%, the pest or weed control at 0.1 ppm (Botrytis cinerea; [15]) is reported as 45% and the “Observed Efficacy (%)” value (Botrytis cinerea; [16]) is reported as 38%. The “Observed Efficacy (%)” value (Botrytis cinerea; [17]) was 45%, the pest or weed control at 0.05 ppm (Erysiphe cichoracearum; Golovinomyces cichoracearum, 0.05 ppm, preventive spray on cucumber, read-out: Observed Efficacy (%)) was 32% and the pest or weed control at 0.1 ppm (Erysiphe cichoracearum; Golovinomyces cichoracearum, 0.1 ppm, preventive spray on cucumber, read-out: Observed Efficacy (%)) was 39%. For the same compound, the pest or weed control at 0.05 ppm (Phakopsora pachyrhizi; [20]) was 7%, the pest or weed control at 0.1 ppm (Phakopsora pachyrhizi; [21]) was 10% and the “Observed Efficacy (%)” value (Phakopsora pachyrhizi; [4]) was 7%. For the same compound, the “Observed Efficacy (%)” value (Phakopsora pachyrhizi; [22]) was 7%, the “Observed Efficacy (%)” value (Phakopsora pachyrhizi; [5]) was 10% and the “Observed Efficacy (%)” value (Phakopsora pachyrhizi; [23]) was 10%. The pest or weed control at 0.05 ppm (Septoria nodorum; Parastagonospora nodorum, 0.05 ppm, read-out: Observed Efficacy (%)) was 8%, the pest or weed control at 0.1 ppm (Septoria nodorum; [24]) was 21% and the pest or weed control at 0.05 ppm (Alternaria solani; [25]) was 26%. For the same compound, the pest or weed control at 0.1 ppm (Alternaria solani; [26]) was 35%, the “Observed Efficacy (%)” value (Alternaria solani; [6]) was 26% and the “Observed Efficacy (%)” value (Alternaria solani; [7]) was 35%. The “Observed Efficacy (%)” value (Alternaria solani; [8]) was 26%, the “Observed Efficacy (%)” value (Alternaria solani; [9]) was 35% and the “Observed Efficacy (%)” value (Alternaria solani; [10]) was 26%. For the same compound, the “Observed Efficacy (%)” value (Alternaria solani; [12]) was 35%.
For C[C@@H]1CC(C)(C)c2cccc(NC(=O)c3cn(C)nc3C(F)F)c21 [Inpyrfluxam], the “Observed Efficacy (%)” value (Botrytis cinerea; [16]) was 25%, the “Observed Efficacy (%)” value (Botrytis cinerea; [17]) was 38% and the “Observed Efficacy (%)” value (Botrytis cinerea; Table F5, Conc. 0.05 ppm, Botrytis cinerea in tomato, preventive) was 25%. The “Observed Efficacy (%)” value (Botrytis cinerea; Table F5, Conc. 0.1 ppm, Botrytis cinerea in tomato, preventive) was 38%, the “Observed Efficacy (%)” value (Botrytis cinerea; [27]) was 35% and 25% and the “Observed Efficacy (%)” value (Botrytis cinerea; [1]) was 38%. For the same compound, the “Observed Efficacy (%)” value (Erysiphe cichoracearum; 0.05 ppm, cucumber, preventive) was 29%, the “Observed Efficacy (%)” value (Erysiphe cichoracearum; [18]) was 29% and the “Observed Efficacy (%)” value (Erysiphe cichoracearum; 0.1 ppm, cucumber, preventive) was 38%. For the same compound, the “Observed Efficacy (%)” value (Erysiphe cichoracearum; [19]) was 38%, the “Observed Efficacy (%)” value (Phakopsora pachyrhizi; [2]) was 18% and the “Observed Efficacy (%)” value (Phakopsora pachyrhizi; [3]) was 30%. The “Observed Efficacy (%)” value (Phakopsora pachyrhizi; [4]) was 18%, the “Observed Efficacy (%)” value (Phakopsora pachyrhizi; [5]) was 30% and the “Observed Efficacy (%)” value (Septoria nodorum; 0.05 ppm) was 12%. For the same compound, the “Observed Efficacy (%)” value (Septoria nodorum; 0.1 ppm) was 29%, the “Observed Efficacy (%)” value (Alternaria solani; [8]) was 14% and the “Observed Efficacy (%)” value (Alternaria solani; [9]) was 23%. The “Observed Efficacy (%)” value (Alternaria solani; [11]) was 14% and the “Observed Efficacy (%)” value (Alternaria solani; [13]) was 23%.
metiram was tested, and the “Observed Efficacy (%)” value (Botrytis cinerea; [16]) was 40%, the “Observed Efficacy (%)” value (Botrytis cinerea; [17]) was 57% and the “Observed Efficacy (%)” value (Botrytis cinerea; [27]) was 40%. For the same compound, the “Observed Efficacy (%)” value (Botrytis cinerea; [1]) was 57%, the “Observed Efficacy (%)” value (Erysiphe cichoracearum; 0.05 ppm, cucumber, preventive) was 47% and the “Observed Efficacy (%)” value (Erysiphe cichoracearum; [18]) was 47%. The “Observed Efficacy (%)” value (Erysiphe cichoracearum; 0.1 ppm, cucumber, preventive) was 55%, the “Observed Efficacy (%)” value (Erysiphe cichoracearum; [19]) was 55% and the “Observed Efficacy (%)” value (Phakopsora pachyrhizi; [2]) was 17%. The “Observed Efficacy (%)” value (Phakopsora pachyrhizi; [4]) was 17%, the “Observed Efficacy (%)” value (Phakopsora pachyrhizi; [5]) was 37% and the “Observed Efficacy (%)” value (Alternaria solani; [8]) was 26%. For the same compound, the “Observed Efficacy (%)” value (Alternaria solani; [9]) was 30%, the “Observed Efficacy (%)” value (Alternaria solani; [11]) was 26% and the “Observed Efficacy (%)” value (Alternaria solani; [13]) was 30%. The “Observed Efficacy” value (Pyricularia oryzae; Conc. 0.05 ppm) was 16% and the “Observed Efficacy” value (Pyricularia oryzae; Conc. 0.1 ppm) was 18%.
